Data reported in ChEMBL document CHEMBL4706518, “Discovery of MGS0274, an ester prodrug of a metabotropic glutamate receptor 2/3 agonist with improved oral bioavailability” (Eur J Med Chem, 2020).

What was measured:
[1] = Oral bioavailability in monkey at 4.92 umol/kg measured up to 24 hrs by LC-MS/MS analysis; assay type: ADME, organism-based, Macaca mulatta; conditions: rhesus monkey, in vivo, at 4.92 µmol/kg
[2] = Stability of compound in HCL at pH 1.2 assessed as remaining parent compound at 50 ug/ml after 1 hr by HPLC analysis; assay type: physicochemical; conditions: HCl at pH 1.2, pH 1.2, at 50 µg/mL, read-out: Stabilty
[3] = Stability of compound in PBS at pH 6.5 assessed as remaining parent compound at 50 ug/ml after 1 hr by HPLC analysis; assay type: physicochemical; conditions: PBS at pH 6.5, pH 6.5, at 50 µg/mL, read-out: Stabilty
[4] = Lipophilicity, logD of compound in n-octanol and phosphate buffered saline at 2 mg after 1.5 hrs by HPLC based shake flask method; assay type: physicochemical; conditions: for logD at 1.5 h: n-octanol/phosphate buffered saline

| bioavailability [1] | remaining at 1 h, 50 ug/ml [2] | remaining at 1 h, 50 ug/ml [3] | logD at 1.5 h [4] | logD ([4]; 1.5 h) | Structure (SMILES) |
| --- | --- | --- | --- | --- | --- |
| 18% | 100% | 97% | 0.58 |  | CC(OC(=O)OC1CCCCC1)OC(=O)[C@H]1[C@@H]2C[C@H](F)[C@@](N)(C(=O)O)[C@@H]21 (stereo partly drawn) |
|  | 100% | 101% | < -0.65 |  | CC(OC(=O)C(C)C)OC(=O)[C@H]1[C@@H]2C[C@H](F)[C@@](N)(C(=O)O)[C@@H]21 (stereo partly drawn) |
|  | 95% | 97% | 1.67 |  | CC(OC(=O)OC12CC3CC(CC(C3)C1)C2)OC(=O)[C@H]1[C@@H]2C[C@H](F)[C@@](N)(C(=O)O)[C@@H]21 (stereo partly drawn) |
|  | 95% | 54% | -0.95 |  | Cc1oc(=O)oc1COC(=O)[C@@]1(N)[C@H]2[C@@H](C[C@@H]1F)[C@@H]2C(=O)O |
|  | 100% | 99% | -0.54 |  | CC(C)(C)C(=O)OCOC(=O)[C@H]1[C@@H]2C[C@H](F)[C@@](N)(C(=O)O)[C@@H]21 |
|  | 102% | 101% | 0.06 |  | CC(C)OC(=O)OC(C)OC(=O)[C@H]1[C@@H]2C[C@H](F)[C@@](N)(C(=O)O)[C@@H]21 (stereo partly drawn) |
|  | 99% | 97% | -0.71 |  | N[C@]1(C(=O)O)[C@H]2[C@@H](C[C@@H]1F)[C@@H]2C(=O)OC1OC(=O)c2ccccc21 (stereo partly drawn) |
|  |  |  | > 1.78 |  | CC(C)[C@@H]1CC[C@@H](C)C[C@H]1OC(=O)O[C@H](C)OC(=O)[C@H]1[C@@H]2C[C@H](F)[C@@](N)(C(=O)O)[C@@H]21 |
| 58% | 100% | 100% | 2.77 |  | CC(OC(=O)O[C@@H]1C[C@H](C)CC[C@H]1C(C)C)OC(=O)[C@H]1[C@@H]2C[C@H](F)[C@@](N)(C(=O)O)[C@@H]21 (stereo partly drawn) |
|  | 75% | 25% |  | Nd(Unstable) | CC(OC(=O)OC1CCCCC1)OC(=O)[C@@]1(N)[C@H]2[C@@H](C[C@@H]1F)[C@@H]2C(=O)O (stereo partly drawn) |
|  | 99% | 98% | -1.69 |  | Cc1oc(=O)oc1COC(=O)[C@H]1[C@@H]2C[C@H](F)[C@@](N)(C(=O)O)[C@@H]21 |
